Data taken from ChEMBL document CHEMBL5528040, “Design and Synthesis of Novel 3-Nitro-1H-1,2,4-triazole-1,2,3-triazole-1,4-disubstituted Analogs as Promising Antitrypanosomatid Agents: Evaluation of In Vitro Activity against Chagas Disease and Leishmaniasis” (J Med Chem, 2024).

Legend:
[1] = Mutagenicity in Salmonella typhimurium TA100 assessed as mutagenic index ratio at 1500 ug per plate incubated for 90 mins in presence of S9 fraction by AMES test; assay type: toxicity, subcellular, Salmonella enterica subsp. enterica serovar Typhimurium; details: s9, 1.5 h, dose 1500 µg
[2] = Substrate activity at Trypanosoma cruzi type I nitro reductase assessed as reduction in NADH incubated for 120 sec by spectrophotometric analysis
[3] = Mutagenicity in Salmonella typhimurium TA102 assessed as number of revertant colonies at 150 ug per plate incubated for 90 mins in presence of S9 fraction by AMES test (reference value: 130.00 +/- 6.93); assay type: toxicity, subcellular, Salmonella enterica subsp. enterica serovar Typhimurium; details: s9, 1.5 h, dose 150 µg
[4] = Mutagenicity in Salmonella typhimurium TA102 assessed as number of revertant colonies at 50 ug per plate incubated for 90 mins in presence of S9 fraction by AMES test (reference value: 130.00 +/- 6.93); assay type: toxicity, subcellular, Salmonella enterica subsp. enterica serovar Typhimurium; details: s9, 1.5 h, dose 50 µg
[5] = Mutagenicity in Salmonella typhimurium TA102 assessed as number of revertant colonies at 1500 ug per plate incubated for 90 mins in presence of S9 fraction by AMES test (reference value: 130.00 +/- 6.93); assay type: toxicity, subcellular, Salmonella enterica subsp. enterica serovar Typhimurium; details: s9, 1.5 h, dose 1500 µg
[6] = Selectivity index, ratio of CC50 for cytotoxicity against monkey LLC-MK2 cells to IC50 for antitrypanosomal activity against Trypanosoma cruzi Tulahuen amastigotes transfected with Escherichia coli beta-galactosidase LacZ gene infected in monkey LLC-MK2 cells; assay type: toxicity, cell-based; details: read-out: Ratio CC50/IC50
[7] = Mutagenicity in Salmonella typhimurium TA102 assessed as number of revertant colonies at 150 ug per plate incubated for 90 mins by AMES test (reference value: 110.67 +/- 20.15); assay type: toxicity, Salmonella enterica subsp. enterica serovar Typhimurium; details: in vivo, 1.5 h, dose 150 µg
[8] = Mutagenicity in Salmonella typhimurium TA100 assessed as mutagenic index ratio at 150 ug per plate incubated for 90 mins by AMES test; assay type: toxicity, Salmonella enterica subsp. enterica serovar Typhimurium; details: in vivo, 1.5 h, dose 150 µg
[9] = Mutagenicity in Salmonella typhimurium TA98 assessed as number of revertant colonies at 150 ug per plate incubated for 90 mins by AMES test (reference value: 22.67 +/- 0.58); assay type: toxicity, Salmonella enterica subsp. enterica serovar Typhimurium; details: in vivo, 1.5 h, dose 150 µg
[10] = Mutagenicity in Salmonella typhimurium TA98 assessed as number of revertant colonies at 1500 ug per plate incubated for 90 mins in presence of S9 fraction by AMES test (reference value: 21.00 +/- 1.00); assay type: toxicity, subcellular, Salmonella enterica subsp. enterica serovar Typhimurium; details: s9, 1.5 h, dose 1500 µg
[11] = Mutagenicity in Salmonella typhimurium TA100 assessed as mutagenic index ratio at 1500 ug per plate incubated for 90 mins by AMES test; assay type: toxicity, Salmonella enterica subsp. enterica serovar Typhimurium; details: in vivo, 1.5 h, dose 1500 µg
[12] = Mutagenicity in Salmonella typhimurium TA100 assessed as number of revertant colonies at 150 ug per plate incubated for 90 mins in presence of S9 fraction by AMES test (reference value: 122.67 +/- 5.03); assay type: toxicity, subcellular, Salmonella enterica subsp. enterica serovar Typhimurium; details: s9, 1.5 h, dose 150 µg
[13] = Mutagenicity in Salmonella typhimurium TA98 assessed as mutagenic index ratio at 5000 ug per plate incubated for 90 mins in presence of S9 fraction by AMES test; assay type: toxicity, subcellular, Salmonella enterica subsp. enterica serovar Typhimurium; details: s9, 1.5 h, dose 5000 µg
[14] = Mutagenicity in Salmonella typhimurium TA102 assessed as number of revertant colonies at 500 ug per plate incubated for 90 mins by AMES test (reference value: 110.67 +/- 20.15); assay type: toxicity, Salmonella enterica subsp. enterica serovar Typhimurium; details: in vivo, 1.5 h, dose 500 µg
[15] = Mutagenicity in Salmonella typhimurium TA100 assessed as number of revertant colonies at 500 ug per plate incubated for 90 mins in presence of S9 fraction by AMES test (reference value: 122.67 +/- 5.03); assay type: toxicity, subcellular, Salmonella enterica subsp. enterica serovar Typhimurium; details: s9, 1.5 h, dose 500 µg
[16] = Mutagenicity in Salmonella typhimurium TA100 assessed as mutagenic index ratio at 500 ug per plate incubated for 90 mins in presence of S9 fraction by AMES test; assay type: toxicity, subcellular, Salmonella enterica subsp. enterica serovar Typhimurium; details: s9, 1.5 h, dose 500 µg
[17] = Mutagenicity in Salmonella typhimurium TA100 assessed as number of revertant colonies at 5000 ug per plate incubated for 90 mins by AMES test (reference value: 88.00 +/- 2.65); assay type: toxicity, Salmonella enterica subsp. enterica serovar Typhimurium; details: in vivo, 1.5 h, dose 5000 µg
[18] = Mutagenicity in Salmonella typhimurium TA98 assessed as number of revertant colonies at 500 ug per plate incubated for 90 mins in presence of S9 fraction by AMES test (reference value: 21.00 +/- 1.00); assay type: toxicity, subcellular, Salmonella enterica subsp. enterica serovar Typhimurium; details: s9, 1.5 h, dose 500 µg
[19] = Mutagenicity in Salmonella typhimurium TA98 assessed as number of revertant colonies at 500 ug per plate incubated for 90 mins by AMES test (reference value: 22.67 +/- 0.58); assay type: toxicity, Salmonella enterica subsp. enterica serovar Typhimurium; details: in vivo, 1.5 h, dose 500 µg
[20] = Mutagenicity in Salmonella typhimurium TA98 assessed as number of revertant colonies at 5000 ug per plate incubated for 90 mins by AMES test (reference value: 22.67 +/- 0.58); assay type: toxicity, Salmonella enterica subsp. enterica serovar Typhimurium; details: in vivo, 1.5 h, dose 5000 µg
[21] = Mutagenicity in Salmonella typhimurium TA98 assessed as mutagenic index ratio at 5000 ug per plate incubated for 90 mins by AMES test; assay type: toxicity, Salmonella enterica subsp. enterica serovar Typhimurium; details: in vivo, 1.5 h, dose 5000 µg
[22] = Mutagenicity in Salmonella typhimurium TA98 assessed as mutagenic index ratio at 50 ug per plate incubated for 90 mins by AMES test; assay type: toxicity, Salmonella enterica subsp. enterica serovar Typhimurium; details: in vivo, 1.5 h, dose 50 µg
[23] = Mutagenicity in Salmonella typhimurium TA102 assessed as mutagenic index ratio at 50 ug per plate incubated for 90 mins by AMES test; assay type: toxicity, Salmonella enterica subsp. enterica serovar Typhimurium; details: in vivo, 1.5 h, dose 50 µg
[24] = Mutagenicity in Salmonella typhimurium TA100 assessed as mutagenic index ratio at 150 ug per plate incubated for 90 mins in presence of S9 fraction by AMES test; assay type: toxicity, subcellular, Salmonella enterica subsp. enterica serovar Typhimurium; details: s9, 1.5 h, dose 150 µg
[25] = Mutagenicity in Salmonella typhimurium TA100 assessed as number of revertant colonies at 1500 ug per plate incubated for 90 mins by AMES test (reference value: 88.00 +/- 2.65); assay type: toxicity, Salmonella enterica subsp. enterica serovar Typhimurium; details: in vivo, 1.5 h, dose 1500 µg
[26] = Mutagenicity in Salmonella typhimurium TA98 assessed as number of revertant colonies at 150 ug per plate incubated for 90 mins in presence of S9 fraction by AMES test (reference value: 21.00 +/- 1.00); assay type: toxicity, subcellular, Salmonella enterica subsp. enterica serovar Typhimurium; details: s9, 1.5 h, dose 150 µg
[27] = Mutagenicity in Salmonella typhimurium TA102 assessed as mutagenic index ratio at 150 ug per plate incubated for 90 mins in presence of S9 fraction by AMES test; assay type: toxicity, subcellular, Salmonella enterica subsp. enterica serovar Typhimurium; details: s9, 1.5 h, dose 150 µg
Trypanosoma cruzi = assay: Potency index, ratio of Benznidazole IC50 to test compound IC50 for antitrypanosomal activity against Trypanosoma cruzi Tulahuen amastigotes transfected with Escherichia coli beta-galactosidase LacZ gene infected in monkey LLC-MK2 cells assessed as inhibition of amastigotes growth incubated for 72 hrs by absorbance based microplate reader analysis; assay type: functional
[28] = Mutagenicity in Salmonella typhimurium TA98 assessed as number of revertant colonies at 50 ug per plate incubated for 90 mins in presence of S9 fraction by AMES test (reference value: 21.00 +/- 1.00); assay type: toxicity, subcellular, Salmonella enterica subsp. enterica serovar Typhimurium; details: s9, 1.5 h, dose 50 µg
[29] = Mutagenicity in Salmonella typhimurium TA100 assessed as number of revertant colonies at 50 ug per plate incubated for 90 mins in presence of S9 fraction by AMES test (reference value: 122.67 +/- 5.03); assay type: toxicity, subcellular, Salmonella enterica subsp. enterica serovar Typhimurium; details: s9, 1.5 h, dose 50 µg
[30] = Mutagenicity in Salmonella typhimurium TA100 assessed as mutagenic index ratio at 5000 ug per plate incubated for 90 mins by AMES test; assay type: toxicity, Salmonella enterica subsp. enterica serovar Typhimurium; details: in vivo, 1.5 h, dose 5000 µg
[31] = Mutagenicity in Salmonella typhimurium TA98 assessed as mutagenic index ratio at 500 ug per plate incubated for 90 mins in presence of S9 fraction by AMES test; assay type: toxicity, subcellular, Salmonella enterica subsp. enterica serovar Typhimurium; details: s9, 1.5 h, dose 500 µg

**Q.** With `O=[N+]([O-])c1ncn(Cc2cn(-c3ccc(OC(F)(F)F)cc3)nn2)n1` as the compound, how does the Ratio [1] read?
**A.** Its Ratio is 0.8.

**Q.** And the pIC50 [2]?
**A.** Its pIC50 is 7.04.

**Q.** What about the Activity [3] of the same compound?
**A.** The Activity was 172.33.

**Q.** And the Activity [4]?
**A.** The Activity was 162.67.

**Q.** What about the Activity [5] of the same compound?
**A.** The Activity was 178.67.

**Q.** What about the selectivity ratio [6] of the same compound?
**A.** Its selectivity ratio is greater than 556.

**Q.** What about the Activity [7] of the same compound?
**A.** Its Activity is 159.33.

**Q.** And the Ratio [8]?
**A.** Its Ratio is 1.

**Q.** And the Activity [9]?
**A.** The Activity was 24.67.

**Q.** What about the Activity [10] of the same compound?
**A.** Its Activity is 22.

**Q.** What about the Ratio [11] of the same compound?
**A.** The Ratio was 0.9.

**Q.** What about the Activity [12] of the same compound?
**A.** The Activity was 117.33.

**Q.** What about the Ratio [13] of the same compound?
**A.** The Ratio was 0.7.

**Q.** What about the Activity [14] of the same compound?
**A.** Its Activity is 159.67.

**Q.** What about the Activity [15] of the same compound?
**A.** Its Activity is 129.

**Q.** What about the Ratio [16] of the same compound?
**A.** Its Ratio is 1.

**Q.** And the Activity [17]?
**A.** The Activity was 80.67.

**Q.** And the Activity [18]?
**A.** Its Activity is 23.33.

**Q.** And the Activity [19]?
**A.** The Activity was 21.33.

**Q.** And the Activity [20]?
**A.** The Activity was 25.

**Q.** What about the Ratio [21] of the same compound?
**A.** Its Ratio is 1.1.

**Q.** And the Ratio [22]?
**A.** The Ratio was 0.8.

**Q.** And the Ratio [23]?
**A.** The Ratio was 1.9.

**Q.** What about the Ratio [24] of the same compound?
**A.** Its Ratio is 0.9.

**Q.** And the Activity [25]?
**A.** The Activity was 81.

**Q.** What about the Activity [26] of the same compound?
**A.** The Activity was 23.33.

**Q.** And the Ratio [27]?
**A.** The Ratio was 1.3.

**Q.** What about the “Ratio IC50” value (Trypanosoma cruzi) of the same compound?
**A.** The value was 68.

**Q.** And the Activity [28]?
**A.** The Activity was 22.67.

**Q.** What about the Activity [29] of the same compound?
**A.** The Activity was 121.33.

**Q.** And the Ratio [30]?
**A.** The Ratio was 0.9.

**Q.** What about the Ratio [31] of the same compound?
**A.** Its Ratio is 1.1.
